# Data published in the supplement of paper PMC10307832.
# Columns and labels:
# Assay in all cases: relative viability (nuclei count vs DMSO), 5 days (fraction); higher = more cells survive
# IPA-3 + Luminespib = compound: C1=CC=C2C(=C1)C=CC(=C2SSC3=C(C=CC4=CC=CC=C43)O)O [IPA-3] + CCNC(=O)c1noc(-c2cc(C(C)C)c(O)cc2O)c1-c1ccc(CN2CCOCC2)cc1 [Luminespib] (partner 0.01 µM)
# Summary of the method: (§1)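 Lung cancer cell lines were pin-tool dosed in 1536-well plates on the day after seeding, with either a lone drug or a fixed anchor-drug dose plus five library-drug doses (not always all listed) in √10 steps. Nuclei were counted on 4× images after 5 days. Relative viability is the ratio of treated-well to vehicle-well nuclei counts, with each value a median of duplicate plates.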
# IPA-3 + Dasatinib = compound: C1=CC=C2C(=C1)C=CC(=C2SSC3=C(C=CC4=CC=CC=C43)O)O [IPA-3] + Cc1nc(Nc2ncc(C(=O)Nc3c(C)cccc3Cl)s2)cc(N2CCN(CCO)CC2)n1 [Dasatinib] (partner 0.075 µM)
# Summary of the method: as §1
# Doramapimod + OSI-027 = compound: Cc1ccc(-n2nc(C(C)(C)C)cc2NC(=O)Nc2ccc(OCCN3CCOCC3)c3ccccc23)cc1 [Doramapimod] + COc1cccc2cc(-c3nc([C@H]4CC[C@H](C(=O)O)CC4)n4ncnc(N)c34)[nH]c12 [OSI-027] (partner 0.5 µM)
# Summary of the method: as §1
# RAF265 + Vorinostat = compound: Cn1c(Nc2ccc(C(F)(F)F)cc2)nc2cc(Oc3ccnc(-c4ncc(C(F)(F)F)[nH]4)c3)ccc21 [RAF265] + O=C(CCCCCCC(=O)Nc1ccccc1)NO [Vorinostat] (partner 1 µM)
# Summary of the method: as §1
Cell Line,relative viability (IPA-3 + Luminespib; first compound 0.2 µM),relative viability (IPA-3 + Luminespib; first compound 0.6325 µM),relative viability (IPA-3 + Luminespib; first compound 2 µM),relative viability (IPA-3 + Luminespib; first compound 6.325 µM),relative viability (IPA-3 + Luminespib; first compound 20 µM),relative viability (IPA-3 + Dasatinib; first compound 0.2 µM),relative viability (IPA-3 + Dasatinib; first compound 0.6325 µM),relative viability (IPA-3 + Dasatinib; first compound 2 µM),relative viability (IPA-3 + Dasatinib; first compound 6.325 µM),relative viability (IPA-3 + Dasatinib; first compound 20 µM),relative viability (Doramapimod + OSI-027; first compound 0.02 µM),relative viability (Doramapimod + OSI-027; first compound 0.06325 µM),relative viability (Doramapimod + OSI-027; first compound 0.2 µM),relative viability (Doramapimod + OSI-027; first compound 0.6325 µM),relative viability (Doramapimod + OSI-027; first compound 2 µM),relative viability (RAF265 + Vorinostat; first compound 0.01 µM),relative viability (RAF265 + Vorinostat; first compound 0.03162 µM),relative viability (RAF265 + Vorinostat; first compound 0.1 µM),relative viability (RAF265 + Vorinostat; first compound 1 µM),relative viability (RAF265 + Vorinostat; first compound 0.3162 µM)
HCC-827,0.881,0.588,0.627,0.67,0.745,0.419,0.358,0.405,0.302,0.292,0.715,0.762,0.756,0.763,0.544,0.866,0.808,0.543,0.704,
HOP-62,1.12,0.919,0.963,0.855,1.11,0.807,0.577,0.71,0.589,0.67,0.828,0.81,0.906,0.923,0.741,0.664,0.542,0.56,0.332,0.507
IA-LM,,,,,,,,,,,,,,,,1.06,0.779,0.895,0.849,0.925
LC-2-ad,1.21,1.06,1.07,1.04,1.05,0.616,0.537,0.662,0.611,0.615,0.897,0.811,0.891,0.827,0.671,0.774,0.7,0.729,0.387,0.596
LCLC-97TM1,0.99,0.733,0.608,0.855,0.783,0.933,0.844,0.945,1.01,0.83,0.533,0.412,0.517,0.437,0.432,0.719,0.508,0.544,0.421,0.525
LCLC-103H,1.09,1,0.916,0.929,0.926,0.492,0.482,0.422,0.56,0.566,0.444,0.424,0.386,0.422,0.396,0.844,0.892,0.683,0.422,0.565
LK-2,0.179,0.193,0.17,0.189,0.222,0.261,0.27,0.222,0.28,0.282,0.204,0.152,0.18,0.158,0.186,0.361,0.245,0.328,0.2,0.404
LOU-NH91,0.326,0.26,0.332,0.33,0.358,0.628,0.568,0.573,0.542,0.697,0.776,0.752,0.738,0.769,0.559,1,0.807,0.926,0.712,0.755
LU99A,0.295,0.179,0.292,0.206,0.214,0.584,0.61,0.642,0.725,0.669,0.299,0.341,0.261,0.344,0.272,0.515,0.447,0.402,0.261,0.286
LXF-289,0.844,0.648,0.646,0.814,0.691,0.279,0.264,0.28,0.176,0.237,0.765,0.762,0.72,0.686,0.605,0.768,0.752,0.754,0.571,0.606
NCI-H23,0.221,0.224,0.201,0.227,0.204,0.598,0.795,0.861,0.724,0.617,0.646,0.601,0.663,0.491,0.628,0.701,0.496,0.39,0.229,0.248
NCI-H322M,0.964,0.722,1.08,1.02,1.13,0.228,0.248,0.248,0.309,0.264,0.577,0.579,0.562,0.522,0.527,0.875,0.866,0.516,0.348,0.403
NCI-H358,0.535,0.313,0.265,0.385,0.255,0.219,0.145,0.186,0.213,0.158,0.746,0.699,0.634,0.858,0.681,0.744,0.564,0.613,0.178,0.459
NCI-H441,0.401,0.29,0.407,0.324,0.422,0.796,0.295,0.486,0.502,0.438,0.709,0.512,0.591,,0.475,0.802,0.712,0.643,0.421,0.715
NCI-H1563,0.514,0.526,0.532,0.512,0.437,0.418,0.506,0.447,0.537,0.442,0.739,0.765,0.733,0.761,0.73,,,,,
NCI-H1623,0.574,0.481,0.675,0.516,0.556,0.509,0.579,0.561,0.546,0.617,0.47,0.475,0.478,0.457,0.397,,,,,
NCI-H1648,,,,,,,,,,,0.249,0.254,0.257,0.26,0.268,0.464,0.539,0.352,0.263,0.317
NCI-H1792,0.475,0.529,0.418,0.38,0.615,1.01,0.81,0.807,0.895,1.03,0.634,0.672,0.628,0.702,0.534,,,,,
